Test [1] deals with interaction between PD-1 and PD-L1 (Homo sapiens, UniProt Q9NZQ7). The test can be described thus: PD-1/PD-L1 protein-protein interaction assay (ALPHA). It is filed as binding. To be noted: 2 nM His-tagged human PD-L1, 0.6 nM PD-1-Fc, AlphaScreen.
Procedure: PD-1′PD-L1 Protein-Protein Interaction Assay
Amplified Luminescent Proximity Homogeneous Assay (ALPHA) platform was used to evaluate the ability of the compounds to block the interaction between PD-1 and PD-L1. The assays were performed in half volume white 96-well plate in a final volume of 40 μl. Compounds at various concentrations were preincubated with 2 nM His tagged recombinant human PD-L1 protein and 0.6 nM recombinant PD-1 protein with Fc-tag (both reagents were purchased from AcroBiosystems) for 40 minutes. After the preincubation, 20 μg/mL of Alphascreen Ni chelate donor beads (PerkinElmer, USA) and Protein A acceptor beads (PerkinElmer, USA) were added into the well and incubated under reduced light at 25° C. for 120 minutes. The signal was measured with the EnSight Multimode Plate Reader. IC50 values were calculated from the four-parameter logistic curve fit.
For test [2], the target named is T1, PD-1/PD-L1 interaction (Homo sapiens, UniProt Q9NZQ7).
T1 construct: expressed in transfected cells
The test can be described thus: PD-1/PD-L1 blockage cell-based bioassay (Jurkat NFAT luciferase / CHO-PDL1 co-culture). To be noted: Jurkat NFAT cells co-cultured with CHO-PDL1 cells, 6 h, luminescence.

For orientation: IC50 means the concentration needed to halve the response being measured.

Chain of interaction between PD-1 and PD-L1 (Q9NZQ7 19-238 limits assumed): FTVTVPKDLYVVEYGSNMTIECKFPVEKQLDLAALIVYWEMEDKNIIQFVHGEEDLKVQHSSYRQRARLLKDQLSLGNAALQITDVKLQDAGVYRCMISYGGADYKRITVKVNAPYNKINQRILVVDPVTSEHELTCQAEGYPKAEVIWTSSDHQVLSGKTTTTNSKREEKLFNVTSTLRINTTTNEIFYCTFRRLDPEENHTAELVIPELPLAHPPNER
T1 sequence (Q9NZQ7 19-290): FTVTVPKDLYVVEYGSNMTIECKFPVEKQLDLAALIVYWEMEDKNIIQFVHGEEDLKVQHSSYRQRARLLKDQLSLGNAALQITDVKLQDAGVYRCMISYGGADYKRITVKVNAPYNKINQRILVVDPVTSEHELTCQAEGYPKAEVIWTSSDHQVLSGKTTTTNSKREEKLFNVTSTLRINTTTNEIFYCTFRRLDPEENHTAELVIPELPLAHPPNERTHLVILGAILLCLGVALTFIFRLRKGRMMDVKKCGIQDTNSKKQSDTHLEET

`COc1cc(-n2ncc3c(-c4cccc(-c5ccc(C6=NCCN6)c(OC)n5)c4Cl)cccc32)cc(OC)c1CN1CC(C)(C(N)=O)C1` [Example 114, 1-(4-(4-(2-chloro-3-(5-(4,5-dihydro-1H-imidazol-2-yl)-6-methoxypyridin-2-yl)phenyl)-1H-indazol-1-yl)-2,6-dimethoxybenzyl)-3-methylazetidine-3-carboxamide]: the IC50 in test [1] was 1 to 10 nM; in test [2], 201 to 2000 nM.
The corresponding values for `COc1cc(-n2ncc3c(-c4cccc(-c5ccc(CN6CC7(CNC(=O)C7)C6)c(OC)n5)c4Cl)cccc32)cc(OC)c1CN1CC(C(=O)O)C1` [Example 150, 1-(4-(4-(2-chloro-3-(6-methoxy-5-((7-oxo-2,6-diazaspiro[3.4]octan-2-yl)methyl)pyridin-2-yl)phenyl)-1H-indazol-1-yl)-2,6-dimethoxybenzyl)azetidine-3-carboxylic acid] are below 1 nM and below 200 nM.
Take `COc1cc(-n2ccc3c(-c4cccc(-c5ccc(CNC[C@@H]6CCC(=O)N6)c(OC)n5)c4Cl)cccc32)cc(OC)c1CNCC(C)(C)C(N)=O` [Example 39]: the IC50 in test [1] was below 1 nM; in test [2], 201 to 2000 nM.
In the same order, the values of `COc1cc(-n2ncc3c(-c4cccc(-c5ccc(CN[C@H]6C[C@@H](O)C6)c(OC)n5)c4Cl)cccc32)ncc1CN[C@H]1C[C@@H](O)C1` [Example 106, cis-3-(((6-(2-chloro-3-(1-(5-(((cis-3-hydroxycyclobutyl)amino)methyl)-4-methoxypyridin-2-yl)-1H-indazol-4-yl)phenyl)-2-methoxypyridin-3-yl)methyl)amino)cyclobutanol] are below 1 nM and 201 to 2000 nM.
The corresponding values for `CCOC(=O)[C@@H](CO)NCc1c(OC)cc(-n2ncc3c(-c4cccc(-c5ccc(CNC[C@@H]6CCC(=O)N6)c(OC)n5)c4Cl)cccc32)cc1OC` [Example 147, Ethyl (2R)-2-[({4-[4-(2-chloro-3-{6-methoxy-5-[({[(2S)-5-oxopyrrolidin-2-yl]methyl)amino)methyl}pyridin-2-yl}phenyl)-1H-indazol-1-yl]-2,6-dimethoxyphenyl}methyl)amino]-3-hydroxypropanoate] are 1 to 10 nM and 201 to 2000 nM.
In the same order, the values of `COc1cc(-n2ncc3c(-c4cccc(-c5ccc(CN6CC7(CNC(=O)C7)C6)c(OC)n5)c4Cl)cccc32)cc(OC)c1CN[C@H](C(=O)O)[C@@H](C)O` [Example 141, (4-(4-(2-chloro-3-(6-methoxy-5-((7-oxo-2,6-diazaspiro[3.4]octan-2-yl)methyl)pyridin-2-yl)phenyl)-1H-indazol-1-yl)-2,6-dimethoxybenzyl)-L-threonine] are below 1 nM and below 200 nM.
For the compound `COc1cc(-n2ncc3c(-c4cccc(-c5ccc(CN[C@H]6C[C@@H](O)C6)c(OC)n5)c4Cl)cccc32)cc(OC)c1CN1CC(C)(C(N)=O)C1` [Example 105, 1-(4-(4-(2-chloro-3-(5-(((cis-3-hydroxycyclobutyl)amino)methyl)-6-methoxypyridin-2-yl)phenyl)-1H-indazol-1-yl)-2,6-dimethoxybenzyl)-3-methylazetidine-3-carboxamide], the figures for the IC50 in test [1] and in test [2] were below 1 nM and below 200 nM, respectively.
In the same order, the values of `COc1cc(-n2ncc3c(-c4cccc(-c5ccc(CNCCO)c(OC)n5)c4Cl)cccc32)cc(OC)c1CNCCO` [Example 129, 2-(((6-(2-chloro-3-(1-(4-(((2-hydroxyethyl)amino)methyl)-3,5-dimethoxyphenyl)-1H-indazol-4-yl)phenyl)-2-methoxypyridin-3-yl)methyl)amino)ethanol] are below 1 nM and below 200 nM.
For `COc1cc(-n2ncc3c(-c4cccc(Nc5nc(C(F)F)nc6cc(CN7CC[C@@H](O)C7)cnc56)c4C)cccc32)cc(OC)c1CN1CCC(C(=O)O)CC1` [Example 163, (R)-1-(4-(4-(3-((2-(difluoromethyl)-7-((3-hydroxypyrrolidin-1-yl)methyl)pyrido[3,2-d]pyrimidin-4-yl)amino)-2-methylphenyl)-1H-indazol-1-yl)-2,6-dimethoxybenzyl)piperidine-4-carboxylic acid], the IC50 was below 1 nM in test [1] and 201 to 2000 nM in test [2].
In the same order, the values of `COc1cc(-n2ncc3c(-c4cccc(Nc5nc(C(F)F)nc6cc(CN7CC[C@@H](O)C7)cnc56)c4C)cccc32)cc(OC)c1CN1CC[C@@](C)(C(=O)O)C1` [Example 158, (R)-1-(4-(4-(3-((2-(difluoromethyl)-7-(((R)-3-hydroxypyrrolidin-1-yl)methyl)pyrido[3,2-d]pyrimidin-4-yl)amino)-2-methylphenyl)-1H-indazol-1-yl)-2,6-dimethoxybenzyl)-3-methylpyrrolidine-3-carboxylic acid] are below 1 nM and below 200 nM.
In the case of `COc1cc(-n2ncc3c(-c4cccc(-c5ccc(CN6CC7(CNC(=O)C7)C6)c(OC)n5)c4Cl)cccc32)cc(OC)c1CNCC(C)(C)C(N)=O` [Example 107, 3-((4-(4-(2-chloro-3-(6-methoxy-5-((7-oxo-2,6-diazaspiro[3.4]octan-2-yl)methyl)pyridin-2-yl)phenyl)-1H-indazol-1-yl)-2,6-dimethoxybenzyl)amino)-2,2-dimethylpropanamide], the IC50 in test [1] is below 1 nM; in test [2], below 200 nM.
Take `COc1cc(-n2ncc3c(-c4cccc(-c5ccc(CN6CC(C(C)(C)O)C6)c(OC)n5)c4Cl)cccc32)cc(OC)c1CN1CC2(CNC(=O)C2)C1` [Example 138, 2-(4-(4-(2-chloro-3-(5-((3-(2-hydroxypropan-2-yl)azetidin-1-yl)methyl)-6-methoxypyridin-2-yl)phenyl)-1H-indazol-1-yl)-2,6-dimethoxybenzyl)-2,6-diazaspiro[3.4]octan-7-one]: the results for the IC50 in test [1] and in test [2] were 1 to 10 nM and 201 to 2000 nM, respectively.
The corresponding values for `COc1cc(-c2cn(C)c3c(-c4cccc(-c5ccc(CNC[C@@H]6CCC(=O)N6)c(OC)n5)c4Cl)cccc23)cc(OC)c1CNC[C@@H]1CCC(=O)N1` [Example 93, (S)-5-((((6-(2-chloro-3-(3-(3,5-dimethoxy-4-(((((S)-5-oxopyrrolidin-2-yl)methyl)amino)methyl)phenyl)-1-methyl-1H-indol-7-yl)phenyl)-2-methoxypyridin-3-yl)methyl)amino)methyl)pyrrolidin-2-one] are 1 to 10 nM and above 2000 nM.
In the same order, the values of `COc1cc(-n2ncc3c(-c4cccc(-c5ccc(CN6CC[C@@H](O)C6)c(OC)n5)c4Cl)cccc32)cc(OC)c1CNC[C@@H]1CCC(=O)N1` [Example 87, (S)-5-(((4-(4-(2-chloro-3-(5-(((R)-3-hydroxypyrrolidin-1-yl)methyl)-6-methoxypyridin-2-yl)phenyl)-1H-indazol-1-yl)-2,6-dimethoxybenzyl)amino)methyl) pyrrolidin-2-one] are 1 to 10 nM and above 2000 nM.
As for `COc1cc(-n2ncc3c(-c4cccc(-c5ccc(CN6CC(C)(C(=O)NC7CC7)C6)c(OC)n5)c4Cl)cccc32)cc(OC)c1CNC[C@@H]1CCC(=O)N1` [Example 92, (S)-1-((6-(2-chloro-3-(1-(3,5-dimethoxy-4-((((5-oxopyrrolidin-2-yl)methyl)amino)methyl)phenyl)-1H-indazol-4-yl)phenyl)-2-methoxypyridin-3-yl)methyl)-N-cyclopropyl-3-methylazetidine-3-carboxamide], the IC50 is below 1 nM in test [1] and below 200 nM in test [2].

The record behind these values is US20240336601A1 (Chulalongkorn University, priority 2020, published 2024).
